Measured values: publication PMC6429214, “Design, Synthesis and Biological Evaluation of Isoxazole-Based CK1 Inhibitors Modified with Chiral Pyrrolidine Scaffolds” (Molecules, 2019)

Columns and labels:
Test in all cases: 33PanQinase panel
Assay type in all cases: biochemical
JNK2 = target: T1, JNK2 (Homo sapiens, UniProt P45984); settings: JNK2, 1 µM; read-out: Residual Activity (%)
T1 construct: purchased ProQinase
Procedure: (§1) Figure 5 Dendrogram representation of the selectivity profile of 29d at a concentration of 1 μM in a panel of 320 wild-type kinases (ProQinase, Freiburg, Germany). The residual kinase activity was determined compared to DMSO control. Images were generated using TREEspot Software Tool, DISCOVERX CORPORATION 2010. […]
(§2) Table S2. Selectivity profile of compound 29d. The inhibitor has been screened at a concentration of 1 µM over a panel of 320 wild-type protein kinases by ProQinase GmbH (Freiburg, Germany) using an activity-based radiometric 33PanQinase® assay. Results are presented as percentage of residual kinase activity relative to […]
(§3) control. The final DMSO concentration was 1 % in each reaction-mix. Classification of protein kinase families refers to Manning et al. (Manning, G.; Whyte, D. B.; Martinez, R.; Hunter, T.; Sudarsanam, S. The Protein Kinase Complement of the Human Genome. Science 2002, 298, 1912–1934): AGC = containing PKA, PKG, PKC families; […] = containing Cdk, MAPK, GSK3, CLK families; STE = homologs of yeast sterile 7, sterile 11, sterile 20 kinases; TK = tyrosine kinase; TKL = tyrosine kinase-like.
(§4) Kinase name Kinase family Residual Activity (%)

BTK = target: T2, BTK (Homo sapiens, UniProt Q06187); settings: read-out: Residual Activity (%)
T2 construct: purchased ProQinase
Procedure: as §1, §2, §3, §4

IGF1-R = target: T3, IGF1-R (Homo sapiens, UniProt P08069); settings: read-out: Residual Activity (%)
T3 construct: purchased ProQinase
Procedure: as §1, §2, §3, §4

CDK1/CycB1 = target: T4, CDK1/CycB1 (Homo sapiens, UniProt P06493); settings: CDK1/CycB1, 1 µM; read-out: Residual Activity (%)
T4 construct: purchased ProQinase
Procedure: as §1, §2, §3, §4

PBK = target: T5, PBK (Homo sapiens, UniProt Q96KB5); settings: read-out: Residual Activity (%)
T5 construct: purchased ProQinase
Procedure: as §1, §2, §3, §4

LRRK2 = target: T6, LRRK2 (Homo sapiens, UniProt Q5S007); settings: LRRK2, 1 µM; read-out: Residual Activity (%)
T6 construct: purchased ProQinase
Procedure: as §1, §2, §3, §4

MLK4 = target: T7, MLK4 (Homo sapiens, UniProt Q5TCX8); settings: MLK4, 1 µM; read-out: Residual Activity (%)
T7 construct: purchased ProQinase
Procedure: as §1, §2, §3, §4

CAMK4 = target: T8, CAMK4 (Homo sapiens, UniProt Q16566); settings: CAMK4, 1 µM; read-out: Residual Activity (%)
T8 construct: purchased ProQinase
Procedure: as §1, §2, §3, §4

TTBK2 = target: T9, TTBK2 (Homo sapiens, UniProt Q6IQ55); settings: TTBK2, 1 µM; read-out: Residual Activity (%)
T9 construct: purchased ProQinase
Procedure: as §1, §2, §3, §4

ERK5 = target: T10, ERK5 (Homo sapiens, UniProt Q13164); settings: ERK5, 1 µM; read-out: Residual Activity (%)
T10 construct: purchased ProQinase
Procedure: as §1, §2, §3, §4

CK2-alpha1 = target: T11, CK2-alpha1 (Homo sapiens, UniProt P68400); settings: CK2-alpha1, 1 µM; read-out: Residual Activity (%)
T11 construct: purchased ProQinase
Procedure: as §1, §2, §3, §4

FGF-R1 = target: T12, FGF-R1 (Homo sapiens, UniProt P11362); settings: FGF-R1, 1 µM; read-out: Residual Activity (%)
T12 construct: purchased ProQinase
Procedure: as §1, §2, §3, §4

EPHA4 = target: T13, EPHA4 (Homo sapiens, UniProt P54764); settings: EPHA4, 1 µM; read-out: Residual Activity (%)
T13 construct: purchased ProQinase
Procedure: as §1, §2, §3, §4

GRK6 = target: T14, GRK6 (Homo sapiens, UniProt P43250); settings: GRK6, 1 µM; read-out: Residual Activity (%)
T14 construct: purchased ProQinase
Procedure: as §1, §2, §3, §4

SIK3 = target: T15, SIK3 (Homo sapiens, UniProt Q9Y2K2); settings: SIK3, 1 µM; read-out: Residual Activity (%)
T15 construct: purchased ProQinase
Procedure: as §1, §2, §3, §4

WEE1 = target: T16, WEE1 (Homo sapiens, UniProt P30291); settings: WEE1, 1 µM; read-out: Residual Activity (%)
T16 construct: purchased ProQinase
Procedure: as §1, §2, §3, §4

CDK2/CycE1 = target: T17, CDK2/CycE1 (Homo sapiens, UniProt P24941); settings: CDK2/CycE1, 1 µM; read-out: Residual Activity (%)
T17 construct: purchased ProQinase
Procedure: as §1, §2, §3, §4

PAK6 = target: T18, PAK6 (Homo sapiens, UniProt Q9NQU5); settings: PAK6, 1 µM; read-out: Residual Activity (%)
T18 construct: purchased ProQinase
Procedure: as §1, §2, §3, §4

FGR = target: T19, FGR (Homo sapiens, UniProt P09769); settings: read-out: Residual Activity (%)
T19 construct: purchased ProQinase
Procedure: as §1, §2, §3, §4

DAPK3 = target: T20, DAPK3 (Homo sapiens, UniProt O43293); settings: DAPK3, 1 µM; read-out: Residual Activity (%)
T20 construct: purchased ProQinase
Procedure: as §1, §2, §3, §4

TIE2 = target: T21, TIE2 (Homo sapiens, UniProt Q02763); settings: TIE2, 1 µM; read-out: Residual Activity (%)
T21 construct: purchased ProQinase
Procedure: as §1, §2, §3, §4

SRPK1 = target: T22, SRPK1 (Homo sapiens, UniProt Q96SB4); settings: SRPK1, 1 µM; read-out: Residual Activity (%)
T22 construct: purchased ProQinase
Procedure: as §1, §2, §3, §4

PAK2 = target: T23, PAK2 (Homo sapiens, UniProt Q13177); settings: PAK2, 1 µM; read-out: Residual Activity (%)
T23 construct: purchased ProQinase
Procedure: as §1, §2, §3, §4

EPHB1 = target: T24, EPHB1 (Homo sapiens, UniProt P54762); settings: EPHB1, 1 µM; read-out: Residual Activity (%)
T24 construct: purchased ProQinase
Procedure: as §1, §2, §3, §4

DDR2 = target: T25, DDR2 (Homo sapiens, UniProt Q16832); settings: DDR2, 1 µM; read-out: Residual Activity (%)
T25 construct: purchased ProQinase
Procedure: as §1, §2, §3, §4

JAK3 = target: T26, JAK3 (Homo sapiens, UniProt P52333); settings: JAK3, 1 µM; read-out: Residual Activity (%)
T26 construct: purchased ProQinase
Procedure: as §1, §2, §3, §4

PKMYT1 = target: T27, PKMYT1 (Homo sapiens, UniProt Q99640); settings: PKMYT1, 1 µM; read-out: Residual Activity (%)
T27 construct: purchased ProQinase
Procedure: as §1, §2, §3, §4

PKC-eta = target: T28, PKC-eta (Homo sapiens, UniProt P24723); settings: read-out: Residual Activity (%)
T28 construct: purchased ProQinase
Procedure: as §1, §2, §3, §4

T2 sequence (Q06187 whole entry): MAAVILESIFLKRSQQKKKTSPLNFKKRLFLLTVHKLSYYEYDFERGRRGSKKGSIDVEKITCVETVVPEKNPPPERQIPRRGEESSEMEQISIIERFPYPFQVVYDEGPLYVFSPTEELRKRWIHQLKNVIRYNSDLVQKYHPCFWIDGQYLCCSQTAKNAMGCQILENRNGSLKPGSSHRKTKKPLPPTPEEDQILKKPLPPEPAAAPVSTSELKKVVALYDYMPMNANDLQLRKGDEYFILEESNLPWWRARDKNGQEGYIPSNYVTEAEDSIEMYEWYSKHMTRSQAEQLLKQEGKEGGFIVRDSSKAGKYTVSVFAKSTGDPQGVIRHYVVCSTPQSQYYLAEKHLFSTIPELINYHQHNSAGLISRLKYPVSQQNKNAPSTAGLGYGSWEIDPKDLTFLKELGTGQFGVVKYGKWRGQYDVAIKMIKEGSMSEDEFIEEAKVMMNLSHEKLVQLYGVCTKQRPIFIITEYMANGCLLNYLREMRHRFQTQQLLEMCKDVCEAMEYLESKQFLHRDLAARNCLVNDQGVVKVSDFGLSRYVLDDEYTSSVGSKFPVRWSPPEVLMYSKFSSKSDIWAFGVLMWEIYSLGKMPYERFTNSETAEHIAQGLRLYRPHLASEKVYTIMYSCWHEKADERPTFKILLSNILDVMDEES
T12 sequence (P11362 22-822): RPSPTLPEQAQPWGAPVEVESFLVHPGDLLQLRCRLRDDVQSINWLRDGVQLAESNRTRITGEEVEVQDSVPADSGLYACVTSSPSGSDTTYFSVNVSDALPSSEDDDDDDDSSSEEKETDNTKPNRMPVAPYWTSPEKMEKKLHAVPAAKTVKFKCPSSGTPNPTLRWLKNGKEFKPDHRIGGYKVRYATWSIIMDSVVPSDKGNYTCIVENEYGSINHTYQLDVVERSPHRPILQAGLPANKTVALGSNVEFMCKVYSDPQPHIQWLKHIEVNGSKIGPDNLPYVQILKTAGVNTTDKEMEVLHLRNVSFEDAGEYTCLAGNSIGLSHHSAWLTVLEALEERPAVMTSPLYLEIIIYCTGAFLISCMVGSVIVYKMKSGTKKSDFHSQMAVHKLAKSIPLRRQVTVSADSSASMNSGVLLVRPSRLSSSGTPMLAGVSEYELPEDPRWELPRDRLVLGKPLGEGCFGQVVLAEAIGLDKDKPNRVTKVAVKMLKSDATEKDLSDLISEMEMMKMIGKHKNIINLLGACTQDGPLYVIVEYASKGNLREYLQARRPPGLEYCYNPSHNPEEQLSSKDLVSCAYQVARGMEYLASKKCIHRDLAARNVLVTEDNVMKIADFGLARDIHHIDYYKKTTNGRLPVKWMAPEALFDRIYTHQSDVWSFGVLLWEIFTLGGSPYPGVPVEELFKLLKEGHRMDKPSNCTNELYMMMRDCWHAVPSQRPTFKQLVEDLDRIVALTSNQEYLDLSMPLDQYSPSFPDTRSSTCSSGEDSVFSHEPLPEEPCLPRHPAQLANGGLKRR
T27 sequence (Q99640 whole entry): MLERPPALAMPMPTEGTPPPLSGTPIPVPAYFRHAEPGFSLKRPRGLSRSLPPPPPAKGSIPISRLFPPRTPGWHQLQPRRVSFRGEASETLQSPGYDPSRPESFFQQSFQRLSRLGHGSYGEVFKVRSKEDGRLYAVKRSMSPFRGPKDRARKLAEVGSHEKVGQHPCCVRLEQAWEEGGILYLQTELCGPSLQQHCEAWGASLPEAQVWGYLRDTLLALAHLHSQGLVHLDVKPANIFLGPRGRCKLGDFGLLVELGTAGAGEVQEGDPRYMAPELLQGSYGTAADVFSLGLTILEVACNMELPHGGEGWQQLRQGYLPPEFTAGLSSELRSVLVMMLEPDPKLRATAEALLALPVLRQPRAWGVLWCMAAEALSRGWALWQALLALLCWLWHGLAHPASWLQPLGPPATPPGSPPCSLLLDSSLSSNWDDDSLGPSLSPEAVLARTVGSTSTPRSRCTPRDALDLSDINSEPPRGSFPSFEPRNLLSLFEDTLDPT
T16 sequence (P30291 whole entry): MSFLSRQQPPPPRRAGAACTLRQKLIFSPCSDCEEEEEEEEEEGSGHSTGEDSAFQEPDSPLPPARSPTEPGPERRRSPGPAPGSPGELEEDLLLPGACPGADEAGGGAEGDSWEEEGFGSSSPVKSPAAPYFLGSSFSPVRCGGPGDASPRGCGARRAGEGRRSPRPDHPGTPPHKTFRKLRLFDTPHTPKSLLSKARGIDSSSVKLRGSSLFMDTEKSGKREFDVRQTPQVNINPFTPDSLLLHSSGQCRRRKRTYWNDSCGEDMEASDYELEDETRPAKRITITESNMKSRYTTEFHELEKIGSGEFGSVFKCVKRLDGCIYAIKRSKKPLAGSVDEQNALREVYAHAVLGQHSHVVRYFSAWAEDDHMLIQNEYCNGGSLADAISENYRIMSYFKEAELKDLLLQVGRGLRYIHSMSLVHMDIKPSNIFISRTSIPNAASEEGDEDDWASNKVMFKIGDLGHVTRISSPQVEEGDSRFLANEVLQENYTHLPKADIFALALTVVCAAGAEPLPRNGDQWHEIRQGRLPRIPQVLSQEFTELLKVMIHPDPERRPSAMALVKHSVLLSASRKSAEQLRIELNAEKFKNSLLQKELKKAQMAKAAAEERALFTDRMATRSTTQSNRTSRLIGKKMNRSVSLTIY
T25 sequence (Q16832 22-855): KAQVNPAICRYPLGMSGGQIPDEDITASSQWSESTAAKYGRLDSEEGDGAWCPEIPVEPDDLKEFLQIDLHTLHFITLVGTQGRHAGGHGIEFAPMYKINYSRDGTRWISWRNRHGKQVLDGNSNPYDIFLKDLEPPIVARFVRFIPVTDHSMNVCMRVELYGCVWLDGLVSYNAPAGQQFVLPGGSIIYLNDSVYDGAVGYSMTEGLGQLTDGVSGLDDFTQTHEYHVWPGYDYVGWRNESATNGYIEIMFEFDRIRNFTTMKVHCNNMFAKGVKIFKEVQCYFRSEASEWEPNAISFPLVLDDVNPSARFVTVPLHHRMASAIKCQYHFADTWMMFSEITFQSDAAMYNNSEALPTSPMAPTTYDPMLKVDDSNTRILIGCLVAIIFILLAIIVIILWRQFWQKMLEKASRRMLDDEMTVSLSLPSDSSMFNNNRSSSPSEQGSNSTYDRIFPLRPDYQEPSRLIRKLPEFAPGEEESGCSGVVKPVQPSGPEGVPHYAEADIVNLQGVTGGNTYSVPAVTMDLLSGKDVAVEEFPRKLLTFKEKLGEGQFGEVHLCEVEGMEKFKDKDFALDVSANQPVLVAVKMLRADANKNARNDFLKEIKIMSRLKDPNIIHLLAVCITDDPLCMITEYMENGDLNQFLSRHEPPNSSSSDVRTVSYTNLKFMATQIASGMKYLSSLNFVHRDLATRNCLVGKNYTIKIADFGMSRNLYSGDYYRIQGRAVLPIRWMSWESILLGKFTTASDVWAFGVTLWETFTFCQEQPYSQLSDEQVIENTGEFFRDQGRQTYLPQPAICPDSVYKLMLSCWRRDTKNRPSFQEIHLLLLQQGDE
T28 sequence (P24723 whole entry): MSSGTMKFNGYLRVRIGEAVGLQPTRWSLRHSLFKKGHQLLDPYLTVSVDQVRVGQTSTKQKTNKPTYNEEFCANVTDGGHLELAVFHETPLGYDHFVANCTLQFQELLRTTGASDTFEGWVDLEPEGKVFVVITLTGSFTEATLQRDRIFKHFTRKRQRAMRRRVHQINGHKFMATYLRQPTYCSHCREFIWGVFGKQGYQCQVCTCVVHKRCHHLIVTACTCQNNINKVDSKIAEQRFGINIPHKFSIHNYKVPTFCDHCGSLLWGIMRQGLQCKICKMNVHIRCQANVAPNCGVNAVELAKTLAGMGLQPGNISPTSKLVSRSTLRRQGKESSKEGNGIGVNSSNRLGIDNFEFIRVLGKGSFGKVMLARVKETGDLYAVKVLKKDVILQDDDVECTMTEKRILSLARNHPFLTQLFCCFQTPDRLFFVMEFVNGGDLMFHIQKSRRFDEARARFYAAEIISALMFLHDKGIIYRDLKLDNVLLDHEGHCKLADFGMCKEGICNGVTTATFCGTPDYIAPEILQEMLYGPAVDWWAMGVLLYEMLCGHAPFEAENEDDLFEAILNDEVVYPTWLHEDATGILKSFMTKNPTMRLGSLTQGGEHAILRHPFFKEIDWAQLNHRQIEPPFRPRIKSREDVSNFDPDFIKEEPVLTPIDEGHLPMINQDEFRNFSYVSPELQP
T23 sequence (Q13177 whole entry): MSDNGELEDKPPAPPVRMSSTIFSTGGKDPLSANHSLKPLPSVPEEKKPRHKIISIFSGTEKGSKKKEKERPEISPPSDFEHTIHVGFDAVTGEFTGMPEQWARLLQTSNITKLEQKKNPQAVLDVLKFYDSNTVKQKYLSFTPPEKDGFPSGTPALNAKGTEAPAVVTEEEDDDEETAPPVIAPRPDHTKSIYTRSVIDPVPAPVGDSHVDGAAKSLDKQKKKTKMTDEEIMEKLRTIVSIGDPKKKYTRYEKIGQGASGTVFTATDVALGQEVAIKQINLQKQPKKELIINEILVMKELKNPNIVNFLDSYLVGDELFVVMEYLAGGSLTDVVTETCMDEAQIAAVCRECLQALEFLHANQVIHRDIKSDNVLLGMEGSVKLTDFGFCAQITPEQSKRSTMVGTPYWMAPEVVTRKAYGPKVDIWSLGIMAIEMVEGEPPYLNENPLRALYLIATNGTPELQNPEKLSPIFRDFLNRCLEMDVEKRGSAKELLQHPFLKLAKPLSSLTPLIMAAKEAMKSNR
T11 sequence (P68400 whole entry): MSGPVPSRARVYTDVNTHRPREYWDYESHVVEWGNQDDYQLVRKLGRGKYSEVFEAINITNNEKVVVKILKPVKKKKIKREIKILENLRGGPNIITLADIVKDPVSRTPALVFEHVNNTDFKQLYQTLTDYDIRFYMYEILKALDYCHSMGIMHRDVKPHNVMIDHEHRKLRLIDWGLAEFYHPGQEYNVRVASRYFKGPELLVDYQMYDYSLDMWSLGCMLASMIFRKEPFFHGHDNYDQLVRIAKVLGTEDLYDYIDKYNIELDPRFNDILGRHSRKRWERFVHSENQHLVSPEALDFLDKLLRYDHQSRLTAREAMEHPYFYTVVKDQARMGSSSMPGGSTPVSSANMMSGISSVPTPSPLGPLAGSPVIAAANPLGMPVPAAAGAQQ

Compound: COc1ccc(-c2cc(C(=O)Nc3cc(-c4c(-c5ccc(F)cc5)noc4C(C)C)ccn3)n(CC3NCC(O)C3O)c2)cc1 (stereo not shown) [29d]
- remaining activity at 1 µM (JNK2): 40%
- remaining activity at 1 µM (BTK): 112%
- remaining activity at 1 µM (IGF1-R): 104%
- remaining activity at 1 µM (CDK1/CycB1): 107%
- remaining activity at 1 µM (PBK): 89%
- remaining activity at 1 µM (LRRK2): 100%
- remaining activity at 1 µM (MLK4): 112%
- remaining activity at 1 µM (CAMK4): 102%
- remaining activity at 1 µM (TTBK2): 101%
- remaining activity at 1 µM (ERK5): 93%
- remaining activity at 1 µM (CK2-alpha1): 103%
- remaining activity at 1 µM (FGF-R1): 138%
- remaining activity at 1 µM (EPHA4): 100%
- remaining activity at 1 µM (GRK6): 101%
- remaining activity at 1 µM (SIK3): 104%
- remaining activity at 1 µM (WEE1): 95%
- remaining activity at 1 µM (CDK2/CycE1): 93%
- remaining activity at 1 µM (PAK6): 83%
- remaining activity at 1 µM (FGR): 107%
- remaining activity at 1 µM (DAPK3): 90%
- remaining activity at 1 µM (TIE2): 110%
- remaining activity at 1 µM (SRPK1): 105%
- remaining activity at 1 µM (PAK2): 107%
- remaining activity at 1 µM (EPHB1): 108%
- remaining activity at 1 µM (DDR2): 95%
- remaining activity at 1 µM (JAK3): 81%
- remaining activity at 1 µM (PKMYT1): 107%
- remaining activity at 1 µM (PKC-eta): 113%
